Values quoted from earlier work in PMC7395068, “The evolution of strategies to minimise the risk of human drug-induced liver injury (DILI) in drug discovery and development” (Archives of Toxicology, 2020).
Like-named read-outs stand apart in the source and are kept apart here.

Conditions: cited from earlier work
[1] = binary in vivo DILI call given beside the severity category, ref Chen 2016
[2] = human DILI concern category (LTKB DILIrank), ref Chen 2016

SMILES	DILI +VE (5-8), DILI -VE (-4) [1]	DILI severity category [2]	DILI +VE (5-8), DILI -VE (-4) (in vivo)	DILI severity category (in vivo)
CC(=O)CCCCn1c(=O)c2c(ncn2C)n(C)c1=O [pentoxifylline]	-VE	Ambiguous DILI-concern		
FC(F)(F)C(F)(F)C(F)(F)F [perflutren]	-VE	vNo-DILI-Concern		
CCC[C@H](N[C@@H](C)C(=O)N1[C@H](C(=O)O)C[C@@H]2CCCC[C@@H]21)C(=O)OCC [perindopril]	-VE	Ambiguous DILI-concern		
CC1=C(C/C=C(\C)CCC[C@H](C)CCC[C@H](C)CCCC(C)C)C(=O)c2ccccc2C1=O [phytonadione]	-VE	vNo-DILI-Concern		
O=C(O)C[C@H](O)C[C@H](O)/C=C/c1c(C2CC2)nc2ccccc2c1-c1ccc(F)cc1 [pitavastatin]	-VE	Ambiguous DILI-concern		
c1cc(CN2CCCNCCNCCCNCC2)ccc1CN1CCCNCCNCCCNCC1 [plerixafor]	-VE	vNo-DILI-Concern		
CN1C(CSCC(F)(F)F)Nc2cc(Cl)c(S(N)(=O)=O)cc2S1(=O)=O (centres unmarked) [polythiazide]	-VE	Ambiguous DILI-concern		
CC[C@@H]([C@H](C)O)n1ncn(-c2ccc(N3CCN(c4ccc(OC[C@@H]5CO[C@@](Cn6cncn6)(c6ccc(F)cc6F)C5)cc4)CC3)cc2)c1=O [posaconazole]	-VE	Ambiguous DILI-concern		
C#CCC(Cc1cnc2nc(N)nc(N)c2n1)c1ccc(C(=O)N[C@@H](CCC(=O)O)C(=O)O)cc1 (some centres unmarked) [pralatrexate]	-VE	Ambiguous DILI-concern		
C[n+]1ccccc1/C=N/O [pralidoxime]	-VE	Ambiguous DILI-concern		
CCO[C@@H]1OC(=O)C[C@@H]1NC(=O)[C@@H]1CCCN2C(=O)CC[C@H](NC(=O)c3nccc4ccccc34)C(=O)N12 [pralnacasan]	+VE	vMost-DILI-Concern		
CCCN[C@H]1CCc2nc(N)sc2C1 [pramipexole]	-VE	Ambiguous DILI-concern		
COc1cc2nc(N3CCN(C(=O)c4ccco4)CC3)nc(N)c2cc1OC [prazosin]			-VE	Ambiguous DILI-concern
CC(C)c1cccc(C(C)C)c1O [propofol]			+VE	vLess-DILI-Concern
NC(=O)[C@@H]1CCCN1C(=O)[C@H](Cc1cnc[nH]1)NC(=O)[C@@H]1CCC(=O)N1 [protirelin]			-VE	vNo-DILI-Concern
Fc1ccccc1C1=NCC(=S)N(CC(F)(F)F)c2ccc(Cl)cc21 [quazepam]	-VE	vNo-DILI-Concern		
OCCOCCN1CCN(C2=Nc3ccccc3Sc3ccccc32)CC1 [quetiapine]	+VE	vLess-DILI-Concern		
COCCCOc1ccnc(C[S+]([O-])c2nc3ccccc3[nH]2)c1C (centres unmarked) [rabeprazole]	+VE	vLess-DILI-Concern		
CCC(=O)NCC[C@@H]1CCc2ccc3c(c21)CCO3 [ramelteon]	-VE	vNo-DILI-Concern		
CCOC(=O)[C@H](CCc1ccccc1)N[C@@H](C)C(=O)N1[C@H](C(=O)O)C[C@@H]2CCC[C@@H]21 [ramipril]			+VE	vLess-DILI-Concern
C#CCN[C@@H]1CCc2ccccc21 [rasagiline]	-VE	Ambiguous DILI-concern		
CNC(=O)c1cnn(-c2nc(N)c3ncn([C@@H]4O[C@H](CO)[C@@H](O)[C@H]4O)c3n2)c1 [regadenoson]			-VE	vNo-DILI-Concern
